# Source: PubChem BioAssay AID328 (DTP/NCI, 2004)
# Values joined by “and” are separate entries in the source; they are usually repeats but may differ in a detail not shown here. Equal entries are not always repeated. Toxic doses and inconclusive results are not listed.
# Test system: BDF1 mice, P388 leukemia ip, median survival T/C
# Test: NCI In Vivo Anticancer Drug Screen. Data for tumor model P388 Leukemia (intraperitoneal) in B6D2F1 (BDF1) mice
# Conditions: endpoint: median survival time, higher = longer survival
# Outline: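 Read-out is survival of treated animals expressed relative to the vehicle group, as a T/C ratio.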
# [1] = dose: 11.0 mg/kg/injection, schedule: Q01DX009 (ip), vehicle: Klucel (hydroxypropylcellulose) (HPC)
# [2] = dose: 16.5 mg/kg/injection, schedule: Q01DX009 (ip), vehicle: Klucel (hydroxypropylcellulose) (HPC)
# [3] = dose: 25.0 mg/kg/injection, schedule: Q01DX009 (ip), vehicle: Klucel (hydroxypropylcellulose) (HPC)
# [4] = dose: 100.0 mg/kg/injection, schedule: Q04DX003 (ip), vehicle: Klucel (hydroxypropylcellulose) (HPC)
# [5] = dose: 100.0 mg/kg/injection, schedule: Q01DX009 (ip), vehicle: saline with Tween-80
# [6] = dose: 50.0 mg/kg/injection, schedule: Q01DX009 (ip), vehicle: Klucel (hydroxypropylcellulose) (HPC)
# [7] = dose: 50.0 mg/kg/injection, schedule: Q01DX009 (ip), vehicle: saline with Tween-80
# [8] = dose: 12.5 mg/kg/injection, schedule: Q01DX009 (ip), vehicle: saline with Tween-80
# [9] = dose: 100.0 mg/kg/injection, schedule: Q04DX002 (ip), vehicle: saline with Tween-80
# [10] = dose: 200.0 mg/kg/injection, schedule: Q04DX002 (ip), vehicle: saline with Tween-80
# [11] = dose: 400.0 mg/kg/injection, schedule: Q04DX002 (ip), vehicle: saline with Tween-80
# [12] = dose: 200.0 mg/kg/injection, schedule: Q04DX003 (ip), vehicle: Klucel (hydroxypropylcellulose) (HPC)
# [13] = dose: 400.0 mg/kg/injection, schedule: Q04DX003 (ip), vehicle: Klucel (hydroxypropylcellulose) (HPC)
smiles,measurement,setting,value
CNC(=N)c1ccc(NC(=N)c2ccc(NC(=O)Nc3ccc(NC(=O)Nc4ccc(C(=N)Nc5ccc(C(=N)NC)cc5)cc4)cc3)cc2)cc1,T/C,"dose: 4.0 mg/kg/injection, schedule: Q04DX003 (ip), vehicle: Klucel (hydroxypropylcellulose) (HPC)",154 % of control
same,T/C,"dose: 6.0 mg/kg/injection, schedule: Q04DX003 (ip), vehicle: Klucel (hydroxypropylcellulose) (HPC)",150 % of control and 154 % of control
same,T/C,"dose: 7.0 mg/kg/injection, schedule: Q01DX009 (ip), vehicle: Klucel (hydroxypropylcellulose) (HPC)",161 % of control
same,T/C,"dose: 9.0 mg/kg/injection, schedule: Q04DX003 (ip), vehicle: Klucel (hydroxypropylcellulose) (HPC)",159 % of control
same,T/C,[1],150 % of control
same,T/C,"dose: 13.0 mg/kg/injection, schedule: Q04DX003 (ip), vehicle: Klucel (hydroxypropylcellulose) (HPC)",176 % of control and 177 % of control
same,T/C,[2],192 % of control
same,T/C,"dose: 20.0 mg/kg/injection, schedule: Q04DX003 (ip), vehicle: Klucel (hydroxypropylcellulose) (HPC)",153 % of control
same,T/C,[3],231 % of control
same,T/C,"dose: 30.0 mg/kg/injection, schedule: Q04DX003 (ip), vehicle: Klucel (hydroxypropylcellulose) (HPC)",176 % of control
same,T/C,"dose: 44.0 mg/kg/injection, schedule: Q04DX003 (ip), vehicle: Klucel (hydroxypropylcellulose) (HPC)",160 % of control and 207 % of control
same,T/C,"dose: 67.0 mg/kg/injection, schedule: Q04DX003 (ip), vehicle: Klucel (hydroxypropylcellulose) (HPC)",173 % of control and 207 % of control
same,T/C,[4],230 % of control (2×) and 156 % of control
same,T/C,"dose: 150.0 mg/kg/injection, schedule: Q04DX003 (ip), vehicle: Klucel (hydroxypropylcellulose) (HPC)",160 % of control and 211 % of control
CN(C)c1ccc(C(=C2C=CC(=[N+](C)C)C=C2)c2ccccc2Cl)cc1,T/C,"dose: 5.0 mg/kg/injection, schedule: Q01DX010 (ip), vehicle: saline",110 % of control
CCN1c2ccccc2CC(C#N)(CCN(C)C)c2ccccc21 (centres undefined),T/C,[5],100 % of control
CCCCCCCCCC(=O)NC(COC1OC(CO)C(O)C(O)C1O)C(O)c1ccccc1 (centres undefined),T/C,"dose: 25.0 mg/kg/injection, schedule: Q01DX009 (ip), vehicle: suspension in saline",98 % of control
same,T/C,"dose: 50.0 mg/kg/injection, schedule: Q01DX009 (ip), vehicle: suspension in saline",108 % of control
same,T/C,"dose: 100.0 mg/kg/injection, schedule: Q01DX009 (ip), vehicle: suspension in saline",102 % of control
OC(C#CC(O)c1ccccc1)c1ccccc1 (centres undefined),T/C,"dose: 100.0 mg/kg/injection, schedule: Q04DX003 (ip), vehicle: saline",100 % of control
same,T/C,"dose: 200.0 mg/kg/injection, schedule: Q04DX003 (ip), vehicle: saline",104 % of control
COC(=O)C1C(O)C(C)C(O)C(C)C=C(C)C2=C3C(=C(C)C(=O)c4c(O)c(c(C)c(OC(C)=O)c43)NC(=O)C(C)=C/C=C\C(C)C(O)C(C)C1O)OCO2 (centres undefined),T/C,[3],101 % of control
same,T/C,"dose: 25.0 mg/kg/injection, schedule: Q01DX009 (ip), vehicle: saline with Tween-80",90 % of control
same,T/C,[6],110 % of control and 97 % of control
same,T/C,[7],109 % of control
same,T/C,"dose: 100.0 mg/kg/injection, schedule: Q01DX009 (ip), vehicle: Klucel (hydroxypropylcellulose) (HPC)",101 % of control and 113 % of control
same,T/C,[5],90 % of control
O=C(C=C(C(F)(F)F)C(F)(F)F)c1cc(Cl)ccc1Cl,T/C,"dose: 3.12 mg/kg/injection, schedule: Q01DX009 (ip), vehicle: saline with Tween-80",95 % of control
same,T/C,"dose: 6.25 mg/kg/injection, schedule: Q01DX009 (ip), vehicle: saline with Tween-80",95 % of control
same,T/C,"dose: 7.0 mg/kg/injection, schedule: Q04DX003 (ip), vehicle: saline with Tween-80",112 % of control
same,T/C,"dose: 11.0 mg/kg/injection, schedule: Q04DX003 (ip), vehicle: saline with Tween-80",120 % of control
same,T/C,[8],103 % of control and 108 % of control
same,T/C,"dose: 12.5 mg/kg/injection, schedule: Q04DX003 (ip), vehicle: saline with Tween-80",115 % of control
same,T/C,"dose: 16.5 mg/kg/injection, schedule: Q04DX003 (ip), vehicle: saline with Tween-80",120 % of control
same,T/C,"dose: 25.0 mg/kg/injection, schedule: Q04DX003 (ip), vehicle: saline with Tween-80",113 % of control
same,T/C,"dose: 37.5 mg/kg/injection, schedule: Q04DX003 (ip), vehicle: saline with Tween-80",121 % of control
O=S(=O)(c1ccccc1)N1C2=CCCC3CCCCC23c2ccccc21 (centres undefined),T/C,[9],95 % of control
same,T/C,[10],92 % of control
same,T/C,[11],92 % of control
CN(C)c1ccc(Cc2ccc(N(C)C)cc2[N+](=O)[O-])c([N+](=O)[O-])c1,T/C,[4],104 % of control
same,T/C,[12],100 % of control
same,T/C,[13],95 % of control
c1ccc(CC(Cc2ccccc2)c2nc3ccccc3s2)cc1,T/C,"dose: 75.0 mg/kg/injection, schedule: Q04DX003 (ip), vehicle: saline",100 % of control
same,T/C,"dose: 150.0 mg/kg/injection, schedule: Q04DX003 (ip), vehicle: saline",100 % of control
same,T/C,"dose: 300.0 mg/kg/injection, schedule: Q04DX003 (ip), vehicle: saline",95 % of control
Cc1nc(-c2ccc(N=Cc3ccc(N(CCOS(C)(=O)=O)CCOS(C)(=O)=O)cc3C)cc2)cs1,T/C,[1],247 % of control
same,T/C,[2],277 % of control and 176 % of control
same,T/C,"dose: 24.75 mg/kg/injection, schedule: Q01DX009 (ip), vehicle: Klucel (hydroxypropylcellulose) (HPC)",108 % of control
same,T/C,[3],111 % of control
CC1CCC2N(C1)CC1C(C(O)C(O)C3(O)C1CC14OC5(O)C(O)CCC1(C)C5CC(O)C34)C2(C)O (centres undefined),T/C,"dose: 25.0 mg/kg/injection, schedule: Q01DX010 (ip), vehicle: carboxymethylcellulose (CMC)",100 % of control
same,T/C,"dose: 50.0 mg/kg/injection, schedule: Q01DX010 (ip), vehicle: carboxymethylcellulose (CMC)",115 % of control
same,T/C,"dose: 100.0 mg/kg/injection, schedule: Q01DX010 (ip), vehicle: carboxymethylcellulose (CMC)",110 % of control
Nc1ncc(CNc2ccc(C(=O)NC(CCC(=O)O)C(=O)O)cc2)c(N)n1 (centres undefined),T/C,[6],89 % of control and 115 % of control
same,T/C,"dose: 200.0 mg/kg/injection, schedule: Q01DX009 (ip), vehicle: Klucel (hydroxypropylcellulose) (HPC)",150 % of control
CCOC(=O)C(F)C(Br)C(=O)OCC (centres undefined),T/C,[7],96 % of control and 101 % of control
same,T/C,[5],116 % of control
same,T/C,"dose: 200.0 mg/kg/injection, schedule: Q01DX009 (ip), vehicle: saline with Tween-80",154 % of control
COc1cc(NS(C)(=O)=O)ccc1Nc1c2ccc(Cl)cc2nc2c(OC)cccc12,T/C,"dose: 0.8 mg/kg/injection, schedule: Q01DX005 (iv), vehicle: water",106 % of control
same,T/C,"dose: 0.8 mg/kg/injection, schedule: Q04DX003 (iv), vehicle: water",105 % of control
same,T/C,"dose: 1.6 mg/kg/injection, schedule: Q01DX005 (iv), vehicle: water",99 % of control
same,T/C,"dose: 1.6 mg/kg/injection, schedule: Q04DX003 (iv), vehicle: water",100 % of control
same,T/C,"dose: 3.3 mg/kg/injection, schedule: Q01DX005 (iv), vehicle: water",114 % of control
same,T/C,"dose: 3.3 mg/kg/injection, schedule: Q04DX003 (iv), vehicle: water",109 % of control
same,T/C,"dose: 6.5 mg/kg/injection, schedule: Q04DX003 (iv), vehicle: water",124 % of control
same,T/C,[8],95 % of control
same,T/C,"dose: 26.0 mg/kg/injection, schedule: Q04DX003 (iv), vehicle: water",250 % of control
N#Cc1nnc2cc[nH]n2c1=O,T/C,[9],100 % of control
same,T/C,[10],103 % of control
same,T/C,[11],109 % of control
CCN1c2ccccc2CC(CCN(C)Cc2ccccc2)(C(N)=O)c2ccccc21 (centres undefined),T/C,[5],101 % of control
CCCCCCCCCCCCCCCC(N)=O,T/C,"dose: 12.5 mg/kg/injection, schedule: Q01DX009 (ip), vehicle: gum acacia",100 % of control
same,T/C,"dose: 50.0 mg/kg/injection, schedule: Q01DX009 (ip), vehicle: gum acacia",91 % of control
same,T/C,[4],86 % of control
same,T/C,[12],90 % of control
same,T/C,[13],104 % of control
CCC(c1ccc2cc(OC)ccc2c1)C(C(=O)O)C(=O)O (centres undefined),T/C,"dose: 50.0 mg/kg/injection, schedule: Q04DX003 (ip), vehicle: Klucel (hydroxypropylcellulose) (HPC)",87 % of control
Cc1ccc(S(=O)(=O)OCC(C)(C)NC(=O)c2ccc([N+](=O)[O-])cc2)cc1,T/C,"dose: 50.0 mg/kg/injection, schedule: Q01DX001 (ip), vehicle: saline with Tween-80",100 % of control
same,T/C,"dose: 100.0 mg/kg/injection, schedule: Q01DX001 (ip), vehicle: saline with Tween-80",105 % of control
same,T/C,"dose: 200.0 mg/kg/injection, schedule: Q01DX001 (ip), vehicle: saline with Tween-80",110 % of control
